# Data: PubChem BioAssay (NCI)
#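 96-well plates; 48 h exposure; 5 concentrations. Endpoints by linear interpolation between flanking doses. Not reached: highest tested concentration assigned. The concentration for 50% growth inhibition is given as GI50. TGI is the concentration that stops growth completely.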
# How the values were obtained:
# Assay in all cases: inhibition of tumour cell growth, NCI panel, 48 h
# A498 renal = tested on: A498 renal
# ACHN renal = tested on: ACHN renal
# COLO 205 colon = tested on: COLO 205 colon
# DU-145 prostate = tested on: DU-145 prostate
# HL-60(TB) leukemia = tested on: HL-60(TB) leukemia
# HS 578T breast = tested on: HS 578T breast
# MALME-3M melanoma = tested on: MALME-3M melanoma
# MDA-MB-231 breast = tested on: MDA-MB-231 breast
# NCI-H226 lung = tested on: NCI-H226 lung
# NCI/ADR-RES ovarian = tested on: NCI/ADR-RES ovarian
# OVCAR-4 ovarian = tested on: OVCAR-4 ovarian
# OVCAR-5 ovarian = tested on: OVCAR-5 ovarian
# SF-539 CNS = tested on: SF-539 CNS
# SK-MEL-28 melanoma = tested on: SK-MEL-28 melanoma
# SK-OV-3 ovarian = tested on: SK-OV-3 ovarian
# SW-620 colon = tested on: SW-620 colon
# UACC-62 melanoma = tested on: UACC-62 melanoma
# 786-0 renal = tested on: 786-0 renal
# A549 NSCLC = tested on: A549 NSCLC
# CAKI-1 renal = tested on: CAKI-1 renal
# CCRF-CEM leukemia = tested on: CCRF-CEM leukemia
# HOP-62 NSCLC = tested on: HOP-62 NSCLC
# IGROV1 ovarian = tested on: IGROV1 ovarian
# K-562 leukemia = tested on: K-562 leukemia
# M14 melanoma = tested on: M14 melanoma
# MCF7 breast = tested on: MCF7 breast
# MDA-MB-435 = tested on: MDA-MB-435
# MOLT-4 leukemia = tested on: MOLT-4 leukemia
# NCI-H23 lung = tested on: NCI-H23 lung
# NCI-H460 lung = tested on: NCI-H460 lung
# RPMI-8226 leukemia = tested on: RPMI-8226 leukemia
# RXF 393 renal = tested on: RXF 393 renal
# SF-268 CNS = tested on: SF-268 CNS
# SK-MEL-2 melanoma = tested on: SK-MEL-2 melanoma
# SK-MEL-5 melanoma = tested on: SK-MEL-5 melanoma
# SNB-75 CNS = tested on: SNB-75 CNS
# SR leukemia = tested on: SR leukemia
# T-47D breast = tested on: T-47D breast
# U251 CNS = tested on: U251 CNS
structure (smiles),measurement,setting,value
O=C(Nc1ccc2ncnc(Nc3ccc(Oc4cccc(F)c4)c(Cl)c3)c2c1)c1ccc(CNCCO)cc1,GI50,A498 renal,2580 nM
same,TGI,A498 renal,23.4 µM
same,GI50,ACHN renal,1590 nM
same,TGI,ACHN renal,3.05 µM
same,GI50,COLO 205 colon,1800 nM
same,TGI,COLO 205 colon,3.56 µM
same,GI50,DU-145 prostate,1800 nM
same,TGI,DU-145 prostate,3.44 µM
same,GI50,HL-60(TB) leukemia,2060 nM
same,TGI,HL-60(TB) leukemia,4.74 µM
same,GI50,HS 578T breast,1640 nM
same,TGI,HS 578T breast,4.42 µM
same,GI50,MALME-3M melanoma,1520 nM
same,TGI,MALME-3M melanoma,2930 nM
same,GI50,MDA-MB-231 breast,1730 nM
same,TGI,MDA-MB-231 breast,3.27 µM
same,GI50,NCI-H226 lung,19.7 µM
same,TGI,NCI-H226 lung,56.1 µM
same,GI50,NCI/ADR-RES ovarian,7.2 µM
same,TGI,NCI/ADR-RES ovarian,36.9 µM
same,GI50,OVCAR-4 ovarian,1880 nM
same,TGI,OVCAR-4 ovarian,4.81 µM
same,GI50,OVCAR-5 ovarian,1630 nM
same,TGI,OVCAR-5 ovarian,3.17 µM
same,GI50,SF-539 CNS,1620 nM
same,TGI,SF-539 CNS,3.01 µM
same,GI50,SK-MEL-28 melanoma,1690 nM
same,TGI,SK-MEL-28 melanoma,3.08 µM
same,GI50,SK-OV-3 ovarian,1140 nM
same,TGI,SK-OV-3 ovarian,2530 nM
same,GI50,SW-620 colon,1830 nM
same,TGI,SW-620 colon,3.52 µM
same,GI50,UACC-62 melanoma,1700 nM
same,TGI,UACC-62 melanoma,3.07 µM
O=CC(O)C(O)C(O)C(O)COP(=O)(O)Cc1ccccc1 (configuration not stated),TGI,786-0 renal,> 10 µM
same,TGI,A549 NSCLC,> 10 µM
same,TGI,ACHN renal,> 10 µM
same,TGI,CAKI-1 renal,> 10 µM
same,TGI,CCRF-CEM leukemia,> 10 µM
same,TGI,COLO 205 colon,> 10 µM
same,TGI,HL-60(TB) leukemia,> 10 µM
same,TGI,HOP-62 NSCLC,> 10 µM
same,TGI,IGROV1 ovarian,> 10 µM
same,TGI,K-562 leukemia,> 10 µM
same,TGI,M14 melanoma,> 10 µM
same,TGI,MALME-3M melanoma,> 10000 nM
same,TGI,MCF7 breast,> 10 µM
same,TGI,MDA-MB-435,> 10 µM
same,TGI,MOLT-4 leukemia,> 10 µM
same,TGI,NCI-H23 lung,> 10 µM
same,TGI,NCI-H460 lung,> 10 µM
same,TGI,NCI/ADR-RES ovarian,> 10 µM
same,TGI,OVCAR-4 ovarian,> 10 µM
same,TGI,OVCAR-5 ovarian,> 10 µM
same,TGI,RPMI-8226 leukemia,> 10 µM
same,TGI,RXF 393 renal,> 10 µM
same,TGI,SF-268 CNS,> 10 µM
same,TGI,SK-MEL-2 melanoma,> 10 µM
same,TGI,SK-MEL-28 melanoma,> 10 µM
same,TGI,SK-MEL-5 melanoma,> 10 µM
same,TGI,SK-OV-3 ovarian,> 10000 nM
same,TGI,SNB-75 CNS,> 10 µM
same,TGI,SR leukemia,> 10 µM
same,TGI,SW-620 colon,> 10 µM
same,TGI,T-47D breast,> 10 µM
same,TGI,U251 CNS,> 10 µM
same,TGI,UACC-62 melanoma,> 10 µM
